Assay [1] is described as follows: Inhibition of quorum sensing system in Pseudomonas aeruginosa transfected with lasB-gfp incubated for 20 hrs by fluorescence based multilabel plate reader analysis.
Assay [2] relates to Pseudomonas aeruginosa. Nature of the assay: Growth inhibition of Pseudomonas aeruginosa transfected with lasB-gfp. Type of assay: functional, organism-based.
The test system of assay [3] is Pseudomonas aeruginosa. Nature of the assay: Antibiofilm activity against Pseudomonas aeruginosa PA14 assessed as inhibition of biofilm biomass at 30 uM incubated for 48 hrs by crystal violet staining based analysis relative to control. Type of assay: functional.
The subject of assay [4] is Chromobacterium violaceum. The assay can be described thus: Inhibition of Chromobacterium violaceum ATCC 31532 quorum sensing receptor CviR at 30 uM incubated for 24 hrs by absorbance based microplate reader analysis relative to control.
The nature of assay [5]: Potency index, ratio of 4NPO IC50 to test compound IC50 for inhibition of quorum sensing system in Pseudomonas aeruginosa transfected with lasB-gfp incubated for 20 hrs by fluorescence based multilabel plate reader analysis.
The test system of assay [6] is Chromobacterium violaceum. The assay can be described thus: Inhibition of Chromobacterium violaceum ATCC 31532 quorum sensing receptor CviR assessed as fold change at 30 uM incubated for 24 hrs by absorbance based microplate reader analysis relative to 4NPO.

As a reminder, the IC50 is the concentration that gives 50% inhibition. What is called inhibition is the share of the control response that was lost under treatment.

Active and inactive are the calls of the source. No cut-off for these calls is given here.

`O=C(N[C@@H](Cc1ccccc1)C(=O)NO)c1cc(Cl)ccc1F` showed an IC50 in assay [1] of 10 µM. Further, the “growth inhibition (GI)” value with Pseudomonas aeruginosa [2] was “inactive”. Also, the inhibition at 30 µM with Pseudomonas aeruginosa [3] was found to be 40%. This molecule also returned an inhibition in assay [4] of 58%.

Molecule `O=C(N[C@@H](Cc1ccccc1)C(=O)NO)c1ccc(Cl)c(Cl)c1` gave an IC50 in assay [1] greater than 100 µM. The “growth inhibition (GI)” value with Pseudomonas aeruginosa [2] was “inactive”. Further, in the assay with Pseudomonas aeruginosa [3], the inhibition at 30 µM was less than 1%. The same molecule returned an inhibition in assay [4] of 35%.

Take `O=C(N[C@@H](Cc1ccccc1)C(=O)NO)c1ccc(COc2ccccc2)cc1`: the IC50 in assay [1] came to 83.5 µM. Also, in the assay with Pseudomonas aeruginosa [2], the “growth inhibition (GI)” value was “inactive”. For the same molecule, the inhibition at 30 µM in the assay with Pseudomonas aeruginosa [3] came out at 20%. The molecule also registered an inhibition in assay [4] of 11%.

Turning to `O=C(Nc1ccccc1)Nc1ccc(C(=O)N[C@@H](Cc2ccccc2)C(=O)NO)cc1`, the IC50 in assay [1] was greater than 100 µM. For the same molecule, the “growth inhibition (GI)” value in the assay with Pseudomonas aeruginosa [2] was “inactive”. Besides, the inhibition at 30 µM in the assay on Pseudomonas aeruginosa [3] was less than 1%. Besides, in assay [4], the inhibition is less than 1%.

For the molecule `O=C(Nc1ccccc1)c1ccc(C(=O)N[C@@H](Cc2ccccc2)C(=O)NO)cc1`, it took 92.3 µM to reach half-maximal inhibition in assay [1] (IC50). Also, the “growth inhibition (GI)” value in the assay on Pseudomonas aeruginosa [2] was “inactive”. Further, in the assay on Pseudomonas aeruginosa [3], the inhibition at 30 µM came out at 11%. In assay [4], this molecule came in with an inhibition of less than 1%.

As for `O=C(N[C@@H](Cc1ccccc1)C(=O)NO)c1ccc(C2CCCCC2)cc1`, in assay [1], the IC50 is 9.44 µM. Further, the “growth inhibition (GI)” value with Pseudomonas aeruginosa [2] was “inactive”. The inhibition at 30 µM in the assay with Pseudomonas aeruginosa [3] came out at 55%. The inhibition in assay [4] turned out to be 65%.

In assay [1], `Cc1ccc(S(=O)(=O)Nc2ccc(C(=O)N[C@@H](Cc3ccccc3)C(=O)NO)cc2)cc1` returned an IC50 of 7.12 µM. Further, the Ratio IC50 in assay [5] was found to be 4. For the same molecule, in the assay with Pseudomonas aeruginosa [2], the “growth inhibition (GI)” value is “inactive”. For the same molecule, the inhibition at 30 µM with Pseudomonas aeruginosa [3] was determined as 75%. In assay [4], this molecule gave an inhibition of 79%. The fold change (FC) in assay [6] turned out to be 1.5.

With `O=C(N[C@@H](Cc1ccccc1)C(=O)NO)c1ccc2ccccc2n1`, in assay [1], inhibition was half-maximal at 50.2 µM (IC50). Moreover, in the assay on Pseudomonas aeruginosa [2], the “growth inhibition (GI)” value was “inactive”. Besides, the inhibition at 30 µM in the assay with Pseudomonas aeruginosa [3] was less than 1%. For the same molecule, in assay [4], the inhibition is less than 1%.

The molecule `O=C(Nc1ccc(Cl)cc1)c1ccc(C(=O)N[C@@H](Cc2ccccc2)C(=O)NO)cc1` displayed an IC50 in assay [1] greater than 100 µM. The “growth inhibition (GI)” value in the assay on Pseudomonas aeruginosa [2] was “inactive”. Further, the inhibition at 30 µM in the assay on Pseudomonas aeruginosa [3] is less than 1%. Besides, in assay [4], the inhibition is less than 1%.

The values are drawn from ChEMBL document CHEMBL5385971, “Identification of novel phenylalanine derivatives bearing a hydroxamic acid moiety as potent quorum sensing inhibitors” (RSC Med Chem, 2024).
